Measured values: ChEMBL document CHEMBL1158525, “New heteroaryl nitrones with spin trap properties: Identification of a 4-furoxanyl derivative with excellent properties to be used in biological systems” (Bioorg Med Chem, 2010)
Active and inactive are the calls of the source.

Assays:
Type in all cases: functional
Settings in all cases: Microsome
Trypanosoma cruzi [1] = experiment: Antioxidant activity in Trypanosoma cruzi microsomes assessed as inhibition of NF-induced free radicals generation by EPR-based spin trap technique
Trypanosoma cruzi [2] = experiment: Antioxidant activity in Trypanosoma cruzi microsomes assessed as inhibition of PtCl2(NF)-induced free radicals generation by EPR-based spin trap technique
Trypanosoma cruzi [3] = experiment: Antioxidant activity in Trypanosoma cruzi microsomes assessed as inhibition of TBfx1-induced free radicals generation by EPR-based spin trap technique
Trypanosoma cruzi [4] = experiment: Antioxidant activity in Trypanosoma cruzi microsomes assessed as inhibition of TBfx2-induced free radicals generation by EPR-based spin trap technique

Measured: Activity

Cc1c(/C=[N+](\[O-])C(C)(C)C)no[n+]1[O-]
active: Trypanosoma cruzi [1] | Trypanosoma cruzi [2] | Trypanosoma cruzi [3] | Trypanosoma cruzi [4]
